Test results published in ChEMBL document CHEMBL1629672, “blaCTX-M genes in escherichia coli strains from Croatian Hospitals are located in new (blaCTX-M-3a) and widely spread (blaCTX-M-3a and blaCTX-M-15) genetic structures” (2009).
Values after ≈ are worked out from the molar mass of the structure shown.

Columns and labels:
Escherichia coli [1] = assay: Antimicrobial activity against Escherichia coli isolate 100 harboring bla CTX-M-3a gene by broth microdilution method; format: functional
Escherichia coli [2] = assay: Antimicrobial activity against Escherichia coli isolate 49 harboring bla CTX-M-3a gene by broth microdilution method; format: functional
Escherichia coli [3] = assay: Antimicrobial activity against Escherichia coli isolate Z1 harboring bla CTX-M-3a gene by broth microdilution method; format: functional
Escherichia coli [4] = assay: Antimicrobial activity against Escherichia coli isolate 86 harboring bla CTX-M-3a gene by broth microdilution method; format: functional
Escherichia coli [5] = assay: Antimicrobial activity against Escherichia coli isolate 36 harboring bla CTX-M-3a gene by broth microdilution method; format: functional
Escherichia coli [6] = assay: Antimicrobial activity against Escherichia coli isolate 16 harboring bla CTX-M-3a gene by broth microdilution method; format: functional
Escherichia coli [7] = assay: Antimicrobial activity against Escherichia coli isolate 32 harboring bla CTX-M-3a gene by broth microdilution method; format: functional
Escherichia coli [8] = assay: microbe, parasite or virus in culture; details: ATCC 25922
Escherichia coli [9] = assay: Antimicrobial activity against Escherichia coli isolate 36 harboring bla CTX-M-3a gene by broth microdilution method in presence of clavulanic acid
Escherichia coli [10] = assay: Antimicrobial activity against Escherichia coli isolate 16 harboring bla CTX-M-3a gene by broth microdilution method in presence of clavulanic acid
Escherichia coli [11] = assay: Antimicrobial activity against Escherichia coli ATCC 25922 harboring bla CTX-M-3a gene by broth microdilution method in presence of clavulanic acid; format: functional
Escherichia coli [12] = assay: Antimicrobial activity against Escherichia coli isolate 100 harboring bla CTX-M-3a gene by broth microdilution method in presence of clavulanic acid
Escherichia coli [13] = assay: Antimicrobial activity against Escherichia coli isolate 86 harboring bla CTX-M-3a gene by broth microdilution method in presence of clavulanic acid
Escherichia coli [14] = assay: Antimicrobial activity against Escherichia coli isolate 32 harboring bla CTX-M-3a gene by broth microdilution method in presence of clavulanic acid
Escherichia coli [15] = assay: Antimicrobial activity against Escherichia coli isolate Z1 harboring bla CTX-M-3a gene by broth microdilution method in presence of clavulanic acid
Escherichia coli [16] = assay: Antimicrobial activity against Escherichia coli isolate 49 harboring bla CTX-M-3a gene by broth microdilution method in presence of clavulanic acid
Escherichia coli [17] = assay: Antimicrobial activity against Escherichia coli isolate 36 harboring bla CTX-M-3a gene by broth microdilution method in presence of Tazobactam; format: functional
Escherichia coli [18] = assay: Antimicrobial activity against Escherichia coli isolate 86 harboring bla CTX-M-3a gene by broth microdilution method in presence of Tazobactam; format: functional
Escherichia coli [19] = assay: Antimicrobial activity against Escherichia coli isolate 100 harboring bla CTX-M-3a gene by broth microdilution method in presence of Tazobactam; format: functional
Escherichia coli [20] = assay: Antimicrobial activity against Escherichia coli isolate 32 harboring bla CTX-M-3a gene by broth microdilution method in presence of Tazobactam; format: functional
Escherichia coli [21] = assay: Antimicrobial activity against Escherichia coli isolate 16 harboring bla CTX-M-3a gene by broth microdilution method in presence of Tazobactam; format: functional
Escherichia coli [22] = assay: Antimicrobial activity against Escherichia coli isolate 49 harboring bla CTX-M-3a gene by broth microdilution method in presence of Tazobactam; format: functional
Escherichia coli [23] = assay: Antimicrobial activity against Escherichia coli ATCC 25922 harboring bla CTX-M-3a gene by broth microdilution method in presence of Tazobactam; format: functional

Compound | MIC (Escherichia coli [1]) | MIC (Escherichia coli [2]) | MIC (Escherichia coli [3]) | MIC (Escherichia coli [4]) | MIC (Escherichia coli [5]) | MIC (Escherichia coli [6]) | MIC (Escherichia coli [7]) | MIC (Escherichia coli [8]) | other results
CO/N=C(\C(=O)N[C@@H]1C(=O)N2C(C(=O)[O-])=C(C[N+]3(C)CCCC3)CS[C@H]12)c1csc(N)n1 | 32 µg/mL (≈ 66.6 µM) | 8 µg/mL (≈ 16.6 µM) | 64 µg/mL (≈ 133 µM) | 512 µg/mL (≈ 1070 µM) | 256 µg/mL (≈ 533 µM) | 128 µg/mL (≈ 266 µM) | – | – | –
NCC[C@H](O)C(=O)N[C@@H]1C[C@H](N)[C@@H](O[C@H]2O[C@H](CN)[C@@H](O)[C@H](O)[C@H]2O)[C@H](O)[C@H]1O[C@H]1O[C@H](CO)[C@@H](O)[C@H](N)[C@H]1O [AMIKACIN] | > 128 µg/mL | ≤ 0.03 µg/mL | > 128 µg/mL | 4 µg/mL (≈ 6.83 µM) | 2 µg/mL (≈ 3.42 µM) | 64 µg/mL (≈ 109 µM) | 16 µg/mL (≈ 27.3 µM) | 1 µg/mL (≈ 1.71 µM) | –
CC1(C)S[C@@H]2[C@H](NC(=O)[C@H](N)c3ccc(O)cc3)C(=O)N2[C@H]1C(=O)O [AMOXICILLIN] | 8 µg/mL (≈ 21.9 µM) | 1 µg/mL (≈ 2.74 µM) | 32 µg/mL (≈ 87.6 µM) | 8 µg/mL (≈ 21.9 µM) | 8 µg/mL (≈ 21.9 µM) | 4 µg/mL (≈ 10.9 µM) | 8 µg/mL (≈ 21.9 µM) | 4 µg/mL (≈ 10.9 µM) | –
CC1(C)S[C@@H]2[C@H](NC(=O)[C@H](N)c3ccccc3)C(=O)N2[C@H]1C(=O)O [AMPICILLIN] | > 1020 µg/mL | > 1020 µg/mL | > 1020 µg/mL | > 1020 µg/mL | > 1020 µg/mL | > 1020 µg/mL | > 1020 µg/mL | 4 µg/mL (≈ 11.4 µM) | –
CO/N=C(\C(=O)N[C@@H]1C(=O)N2C(C(=O)O)=C(COC(C)=O)CS[C@H]12)c1csc(N)n1 [CEFOTAXIME] | 128 µg/mL (≈ 281 µM) | 128 µg/mL (≈ 281 µM) | > 1020 µg/mL | > 1020 µg/mL | 512 µg/mL (≈ 1120 µM) | 64 µg/mL (≈ 141 µM) | > 1020 µg/mL | 0.06 µg/mL (≈ 0.132 µM) | MIC (Escherichia coli [9]): 0.06 µg/mL; MIC (Escherichia coli [10]): 0.125 µg/mL; MIC (Escherichia coli [11]): ≤ 0.03 µg/mL; MIC (Escherichia coli [12]): 0.06 µg/mL; MIC (Escherichia coli [13]): 0.125 µg/mL; MIC (Escherichia coli [14]): 0.06 µg/mL; MIC (Escherichia coli [15]): 0.5 µg/mL; MIC (Escherichia coli [16]): 0.06 µg/mL
CO[C@@]1(NC(=O)Cc2cccs2)C(=O)N2C(C(=O)O)=C(COC(N)=O)CS[C@@H]21 [CEFOXITIN] | 8 µg/mL (≈ 18.7 µM) | 2 µg/mL (≈ 4.68 µM) | 16 µg/mL (≈ 37.4 µM) | 16 µg/mL (≈ 37.4 µM) | 8 µg/mL (≈ 18.7 µM) | 4 µg/mL (≈ 9.36 µM) | 16 µg/mL (≈ 37.4 µM) | 4 µg/mL (≈ 9.36 µM) | –
CC(C)(O/N=C(\C(=O)N[C@@H]1C(=O)N2C(C(=O)[O-])=C(C[n+]3ccccc3)CS[C@H]12)c1csc(N)n1)C(=O)O [CEFTAZIDIME] | 4 µg/mL (≈ 7.32 µM) | 0.25 µg/mL (≈ 0.457 µM) | 16 µg/mL (≈ 29.3 µM) | 8 µg/mL (≈ 14.6 µM) | 4 µg/mL (≈ 7.32 µM) | 1 µg/mL (≈ 1.83 µM) | 4 µg/mL (≈ 7.32 µM) | 0.25 µg/mL (≈ 0.457 µM) | MIC (Escherichia coli [9]): 0.25 µg/mL; MIC (Escherichia coli [10]): 0.125 µg/mL; MIC (Escherichia coli [11]): 0.125 µg/mL; MIC (Escherichia coli [12]): 0.5 µg/mL; MIC (Escherichia coli [13]): 0.5 µg/mL; MIC (Escherichia coli [14]): 0.5 µg/mL; MIC (Escherichia coli [15]): 1 µg/mL; MIC (Escherichia coli [16]): 0.06 µg/mL
CO/N=C(\C(=O)N[C@@H]1C(=O)N2C(C(=O)O)=C(CSc3nc(=O)c(O)nn3C)CS[C@H]12)c1csc(N)n1 [CEFTRIAXONE] | > 1020 µg/mL | 128 µg/mL (≈ 231 µM) | > 1020 µg/mL | > 1020 µg/mL | > 1020 µg/mL | > 1020 µg/mL | > 1020 µg/mL | 0.06 µg/mL (≈ 0.108 µM) | –
O=C(O)c1cn(C2CC2)c2cc(N3CCNCC3)c(F)cc2c1=O [CIPROFLOXACIN] | – | ≤ 0.03 µg/mL | > 128 µg/mL | – | – | – | – | ≤ 0.03 µg/mL | –
C[C@@H](O)[C@H]1C(=O)N2C(C(=O)O)=C(SCCNC=N)C[C@H]12 [IMIPENEM ANHYDROUS] | 0.5 µg/mL (≈ 1.67 µM) | 0.06 µg/mL (≈ 0.2 µM) | 1 µg/mL (≈ 3.34 µM) | – | 0.25 µg/mL (≈ 0.835 µM) | – | 0.25 µg/mL (≈ 0.835 µM) | – | –
C[C@@H](O)[C@H]1C(=O)N2C(C(=O)O)=C(S[C@@H]3CN[C@H](C(=O)N(C)C)C3)[C@H](C)[C@H]12 [MEROPENEM] | 0.25 µg/mL (≈ 0.652 µM) | 0.06 µg/mL (≈ 0.156 µM) | 0.125 µg/mL (≈ 0.326 µM) | 0.06 µg/mL (≈ 0.156 µM) | 0.125 µg/mL (≈ 0.326 µM) | 0.06 µg/mL (≈ 0.156 µM) | 0.06 µg/mL (≈ 0.156 µM) | ≤ 0.03 µg/mL | –
CCN1CCN(C(=O)N[C@@H](C(=O)N[C@@H]2C(=O)N3[C@@H]2SC(C)(C)[C@@H]3C(=O)O)c2ccccc2)C(=O)C1=O [PIPERACILLIN] | > 1020 µg/mL | 64 µg/mL (≈ 124 µM) | > 1020 µg/mL | > 1020 µg/mL | > 1020 µg/mL | 256 µg/mL (≈ 495 µM) | > 1020 µg/mL | 2 µg/mL (≈ 3.86 µM) | MIC (Escherichia coli [17]): 4 µg/mL; MIC (Escherichia coli [18]): > 128 µg/mL; MIC (Escherichia coli [19]): 4 µg/mL; MIC (Escherichia coli [20]): 16 µg/mL; MIC (Escherichia coli [21]): 2 µg/mL; MIC (Escherichia coli [22]): 8 µg/mL; MIC (Escherichia coli [23]): 2 µg/mL
GENTAMICIN | > 128 µg/mL | 0.125 µg/mL | > 128 µg/mL | > 128 µg/mL | 1 µg/mL | 32 µg/mL | > 128 µg/mL | – | –
